Reference: patent US20200368338A1, “CONJUGATE OF WT1-DERIVED PEPTIDES AND COMPOSITION COMPRISING THE SAME” (SUMITOMO DAINIPPON PHARMA CO., LTD., priority 2017, published 2020)

Tested on: HLA-A2402 transgenic mouse
Test: Evaluation of CTL inducing ability in vivo in HLA-A2402 transgenic mouse (IFNγ ELISPOT assay of splenocytes)
Conditions: intradermal emulsion with Montanide ISA 51 VG, tail base, two sites, splenocytes one week after administration stimulated with peptide of SEQ ID NO: 4 at 10 μg/ml, FIG. 1
Method: The solution was diluted with water for injection to a concentration of 5.0 mg/mL, and then converted to an emulsion by addition of an equal volume of Montanide ISA 51 VG. […] One week after the administration, the mice were sacrificed with CO2 gas. Splenocytes were harvested from spleens removed from the mice. […] In particular, an ELISPOT plate was treated with an anti-mouse-IFNγ antibody on the day before preparation of the splenocyte samples. On the next day, the plate was blocked by treatment with an RPMI 1640 medium with 10% FBS. […] For in vitro stimulation of the cells, the peptide of SEQ ID NO: 4 was dissolved in DMSO at a concentration of 40 mg/ml, diluted with RPMI 1640 with 10% FBS to 40 μg/ml, and added to the splenocyte-containing wells at a final concentration of 10 μg/ml. […] Then, after removal of the culture medium from the wells, the ELISPOT plate was subjected to treatment for cell staining in accordance with the manufacturer's protocol. Stained spots were counted on ImmunoSpot Analyzer (C.T.L.).

For “CYTWNQMNL [peptide of SEQ ID NO: 4, HLA-A2402-restricted WT1 peptide]”, the “induction of CTLs responsive to the peptide of SEQ ID NO: 4 (IFNγ-producing splenocytes)” value was “induced CTLs responsive to the peptide of SEQ ID NO: 4”.
